Measured values taken from patent EP0509470A2, “Therapeutical compositions having anti-HIV activity consisting of 2',3'-didesoxyadenosine and substances inhibiting adenosine deaminase” (REPLA CHEMICAL LTD., priority 1991, dated 1992).
Read-outs that look alike come from different tables or passages of the source.

Assays:
Assay type in all cases: cell-based
[1] = Cytotoxicity evaluation (cell number in Coulter after 96 hours); conditions: human
Experimental: (§1) The cellular lines utilized in this study were: H9, T lymphocytes, CD4+, permissive for the HIV replication but partially resistant to its cytopathic effect; • H9/IIIB, H9 lymphocytes chronically infected by HTLV/IIIB virus; • MT4 and C8166, T lymphocytes lines, CD4+ permissive for HIV replication. In C8166 the virus induces a cytopathic effect which results in the formation of syncytia easily visible at the optical microscope.
(§2) All the lymphoid lines were cultured in RPMI 1640 containing 10 % of non decomplemented fetal calf serum (FCS), penicillin 100U/mL and streptomycin 100 µg/mL and incubated at 37 °C in 5% CO₂.
(§3) For the cytotoxicity evaluation, the cells were resuspended in a culture medium at a density of 1 x 10⁵/mL, were incubated in the absence or in the presence of various concentration of the compounds to be studied and their number was determined in Coulter after 96 hours of incubation at 37 °C.

HIV-1 [2] = assay: Inhibition of infecting HIV production in MT4 cells (end point titration); conditions: for EC90: read-out: ED90 (the source's name); for enhancement of the anti-HIV-1 activity of ddAdo (10 µM): compound used at its MNTD together with ddAdo 10 µM, Fig. 1
Experimental: as §1, §2
(§4) HIV virus was obtained by H9/IIIB cells surnatant taken at the end of their exponential growth.
(§5) The titre of several stock preparations was comprised between 2 and 5 x 10⁵ Cell Culture Infection Dose 50 (CCID50)/mL.
(§6) For the evaluation of the anti-HIV activity the inhibition of infecting HIV production was determined as follows.
(§7) C8166 or MT4 cells sown at a density of 1 x 10⁶ cells/ml, were infected with a multiplicity of infection (m.o.i.) comprised between 0.05 and 0.02 CCID50/cell. After two hours of incubation at 37 °C and subsequent removal of the inoculum, the cells were washed three times and resuspended at a density of 1 x 10⁵ cells/ml. in the absence or in the presence of the compounds to be investigated.
(§8) After 4 days of incubation at 37 °C the presence of syncytia was evaluated at the optical microscope and the quantity of infecting HIV present in the surnatant of the cultures was determined by end point titration.
(§9) HIV titration was carried out in C8166 cells sown at a density of 1 x 10⁵ cells/mL/well, by the limit dilution method (dilution ratio 1:2, every dilution being sown in quadruplicate).
(§10) After four days of incubation, the syncytia presence was evaluated at the microscope and the viral titre was calculated by the Reed and Muench method.

HIV-1 [3] = assay: Inhibition of infecting HIV production in C8166 cells (end point titration); conditions: for EC90: read-out: ED90 (the source's name)
Experimental: as §1, §2, §4, §5, §6, §7, §8, §9, §10

MT4 cells = assay: Cytotoxicity evaluation (cell number in Coulter after 96 hours); conditions: human, mt4 cells, 96 h
Experimental: as §1, §2, §3

[4] = MT4 cells, compound alone, Table 2
[5] = C8166 cells, compound alone, Table 2
[6] = ddAdo alone (EHNA absent), C8166, Table 3
[7] = ddAdo alone (Coformycin absent), MT4, Table 4
[8] = ddAdo alone (desoxycoformycin absent), MT4, Table 5
[9] = ddAdo with Coformycin 0.02 (unit not given), MT4
[10] = ddAdo with Coformycin 0.06 (unit not given), MT4
[11] = ddAdo with Coformycin 0.2 (unit not given), MT4
[12] = ddAdo with Coformycin 0.5 (unit not given), MT4
[13] = ddAdo with Coformycin 1.6 (unit not given), MT4
[14] = ddAdo with Coformycin 5 (unit not given), MT4
[15] = ddAdo with Coformycin 15 (unit not given), MT4
[16] = ddAdo with Coformycin 45 (unit not given), MT4
[17] = ddAdo with desoxycoformycin 0.05 (unit not given), MT4
[18] = ddAdo with desoxycoformycin 0.5 (unit not given), MT4
[19] = ddAdo with desoxycoformycin 5 (unit not given), MT4
[20] = ddAdo with desoxycoformycin 50 (unit not given), MT4

Structure (SMILES): CCCCCC[C@H]([C@H](C)O)n1cnc2c(N)nccc21 (relative stereo) [3-deaza-EHNA]
- CC50 at 96 h ([1]; mt4 cells): 30 µM
- MNTC at 96 h ([1]; mt4 cells, MNTD): 10 µM
- EC90 (HIV-1 [2]; [4]): > 10 µM
- enhancement of the anti-HIV-1 activity of ddAdo (10 µM) (HIV-1 [2]; MT4 cells): highest enhancing effect

Structure (SMILES): Nc1ncnc2c1ncn2[C@H]1CC[C@@H](CO)O1 [ddAdo, 2',3'-didesoxyadenosine]
- EC90 (HIV-1 [3]; [5]): 25 µM
- ED99 (HIV-1 [3]; [6]): 39.0 µM
- ED99.9 (HIV-1 [3]; [6]): 61.0 µM
- ED99 (HIV-1 [3]; ddAdo with EHNA 0.06 µM, C8166): 30.5 µM
- ED99.9 (HIV-1 [3]; ddAdo with EHNA 0.06 µM, C8166): 52.0 µM
- EC90 (HIV-1 [3]; ddAdo with EHNA 0.06 µM, C8166): 10.5 µM
- ED99 (HIV-1 [3]; ddAdo with EHNA 0.2 µM, C8166): 18.0 µM
- ED99.9 (HIV-1 [3]; ddAdo with EHNA 0.2 µM, C8166): 42.5 µM
- EC90 (HIV-1 [3]; ddAdo with EHNA 0.2 µM, C8166): 7.5 µM
- ED99 (HIV-1 [3]; ddAdo with EHNA 0.5 µM, C8166): 14.5 µM
- ED99.9 (HIV-1 [3]; ddAdo with EHNA 0.5 µM, C8166): 34.5 µM
- EC90 (HIV-1 [3]; ddAdo with EHNA 0.5 µM, C8166): 6.5 µM
- ED99 (HIV-1 [3]; ddAdo with EHNA 1.6 µM, C8166): 11.5 µM
- ED99.9 (HIV-1 [3]; ddAdo with EHNA 1.6 µM, C8166): 25.5 µM
- EC90 (HIV-1 [3]; ddAdo with EHNA 1.6 µM, C8166): 5 µM
- ED99 (HIV-1 [3]; ddAdo with EHNA 5 µM, C8166): 10.0 µM
- ED99.9 (HIV-1 [3]; ddAdo with EHNA 5 µM, C8166): 23.5 µM
- EC90 (HIV-1 [3]; ddAdo with EHNA 5 µM, C8166): 3.5 µM
- ED99 (HIV-1 [3]; ddAdo with EHNA 15 µM, C8166): 7.5 µM
- ED99.9 (HIV-1 [3]; ddAdo with EHNA 15 µM, C8166): 17.5 µM
- EC90 (HIV-1 [3]; ddAdo with EHNA 15 µM, C8166): 3 µM
- MNTC (MT4 cells): 1 mM
- CC50 at 96 h ([1]; c8166 cells): > 1000 µM
- MNTC at 96 h ([1]; c8166 cells, MNTD): > 1000 µM
- MNTC at 96 h ([1]; c8166 cells, maxima non cytotoxic doses (MNTD)): ≥ 1000 µM
- CC50 at 96 h ([1]; mt4 cells): > 1000 µM
- MNTC at 96 h ([1]; mt4 cells, MNTD): > 1000 µM
- MNTC at 96 h ([1]; mt4 cells, maxima non cytotoxic doses (MNTD)): ≥ 1000 µM
- MNTC at 96 h ([1]; mt4 cells, in association with 15 µM of EHNA, Fig. 2, read-out: MNTD of ddAdo): 60 µM
- MNTC at 96 h ([1]; mt4 cells, in association with 125 µM of CF, Fig. 3, read-out: MNTD of ddAdo): 60 µM
- EC90 (HIV-1 [2]; [4]): 10 µM
- ED99 (HIV-1 [2]; [7]): 19.0 µM
- ED99.9 (HIV-1 [2]; [7]): 32.0 µM
- EC90 (HIV-1 [2]; [7]): 11 µM
- ED99 (HIV-1 [2]; [8]): 14.3 µM
- ED99.9 (HIV-1 [2]; [8]): 23.8 µM
- EC90 (HIV-1 [2]; [8]): 4.8 µM
- EC90 (HIV-1 [2]; ddAdo with Coformycin 0.02 (unit inferred), MT4): 4 µM
- ED99 (HIV-1 [2]; [9]): 7.6 µM
- ED99.9 (HIV-1 [2]; [9]): 13.7 µM
- ED99 (HIV-1 [2]; [10]): 7.1 µM
- ED99.9 (HIV-1 [2]; [10]): 12.5 µM
- ED99 (HIV-1 [2]; [11]): 5.0 µM
- ED99.9 (HIV-1 [2]; [11]): 8.0 µM
- EC90 (HIV-1 [2]; ddAdo with Coformycin 0.5 (unit inferred), MT4): 3.6 µM
- ED99 (HIV-1 [2]; [12]): 5.0 µM
- ED99.9 (HIV-1 [2]; [12]): 8.0 µM
- EC90 (HIV-1 [2]; ddAdo with Coformycin 1.6 (unit inferred), MT4): 2.5 µM
- ED99 (HIV-1 [2]; [13]): 4.5 µM
- ED99.9 (HIV-1 [2]; [13]): 7.5 µM
- EC90 (HIV-1 [2]; ddAdo with Coformycin 5 (unit inferred), MT4): 2 µM
- ED99 (HIV-1 [2]; [14]): 4.0 µM
- ED99.9 (HIV-1 [2]; [14]): 7.5 µM
- EC90 (HIV-1 [2]; ddAdo with Coformycin 15 (unit inferred), MT4): 1.5 µM
- ED99 (HIV-1 [2]; [15]): 3.5 µM
- ED99.9 (HIV-1 [2]; [15]): 7.5 µM
- EC90 (HIV-1 [2]; ddAdo with Coformycin 45 (unit inferred), MT4): 1 µM
- ED99 (HIV-1 [2]; [16]): 2.5 µM
- ED99.9 (HIV-1 [2]; [16]): 7.0 µM
- ED99 (HIV-1 [2]; [17]): 8.0 µM
- ED99.9 (HIV-1 [2]; [17]): 14.4 µM
- EC90 (HIV-1 [2]; ddAdo with desoxycoformycin 0.5 (unit inferred), MT4): 1.3 µM
- ED99 (HIV-1 [2]; [18]): 7.8 µM
- ED99.9 (HIV-1 [2]; [18]): 14.2 µM
- EC90 (HIV-1 [2]; ddAdo with desoxycoformycin 5 (unit inferred), MT4): 1.1 µM
- ED99 (HIV-1 [2]; [19]): 6.2 µM
- ED99.9 (HIV-1 [2]; [19]): 11.2 µM
- EC90 (HIV-1 [2]; ddAdo with desoxycoformycin 50 (unit inferred), MT4): 0.9 µM
- ED99 (HIV-1 [2]; [20]): 3.8 µM
- ED99.9 (HIV-1 [2]; [20]): 6.7 µM

Structure (SMILES): CCCCCC[C@H]([C@H](C)O)n1cnc2c(N)ccnc21 (relative stereo) [1-deaza-EHNA]
- CC50 at 96 h ([1]; mt4 cells): 75 µM
- MNTC at 96 h ([1]; mt4 cells, MNTD): 20 µM
- EC90 (HIV-1 [2]; [4]): 20 µM

Structure (SMILES): CCCCCC[C@H]([C@H](C)O)n1cnc2c(N)ncnc21 (relative stereo) [EHNA, 9-(erythro-2-hydroxy-3-nonyl) adenine]
- EC90 (HIV-1 [3]; [5]): > 15 µM
- lowest concentration enhancing ddAdo anti-HIV activity, relative to its MNTD (HIV-1 [3]; EHNA with ddAdo, C8166): 250 times lower
- CC50 at 96 h ([1]; c8166 cells): 25 µM
- MNTC at 96 h ([1]; c8166 cells, MNTD): 15 µM
- CC50 at 96 h ([1]; mt4 cells): 35 µM
- MNTC at 96 h ([1]; mt4 cells, MNTD): 10 µM
- EC90 (HIV-1 [2]; [4]): > 10 µM
- enhancement of the anti-HIV-1 activity of ddAdo (10 µM) (HIV-1 [2]; MT4 cells): highest enhancing effect

Structure (SMILES): CCCCCC[C@H]([C@H](C)O)n1ccc2c(N)ncnc21 (relative stereo) [7-deaza-EHNA]
- CC50 at 96 h ([1]; mt4 cells): 50 µM
- MNTC at 96 h ([1]; mt4 cells, MNTD): 5 µM
- EC90 (HIV-1 [2]; [4]): > 5 µM
